This is an account of results in PubChem BioAssay AID2060505 (Molecular Pharmacology Branch, DTP, NCI, 2025).

This test relates to 633275-114-R-J1-PDC complex spheroids, viability. Nature of the test: Anticancer human tumor 633275-114-R-J1-PDC patient-derived endometrial adenocarcinoma cell line growth inhibition [GQUAD]. The following applies: for viability, T/C: stronger effect = lower value. The gist of the method:
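Tumor cells were grown as complex spheroids with HUVEC endothelial cells and mesenchymal stem cells as stroma. G-quadruplex stabilizers were combined with targeted agents over half-log dilutions from near the clinical Cmax, or from 10 microM.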

The mark [1] stands for this setting: curve of first compound, second compound 0.0316 µM.
Setting [2] is: curve of first compound, second compound 0.1 µM.
Where [3] appears, read: curve of first compound, second compound 0.316 µM.
Where [4] appears, read: curve of first compound, second compound 1 µM.
Where [5] appears, read: curve of first compound, second compound 3.16 µM.
The mark [6] stands for this setting: curve of first compound, second compound 10 µM.
Setting [7] is: second compound 0.0316 µM, first compound 0.0316 µM.
Setting [8] is: second compound 0.0316 µM, first compound 0.1 µM.
Where [9] appears, read: second compound 0.0316 µM, first compound 0.316 µM.
Where [10] appears, read: second compound 0.0316 µM, first compound 1 µM.
Setting [11] is: second compound 0.0316 µM, first compound 3.16 µM.
Setting [12] is: second compound 0.0316 µM, first compound 10 µM.
Where [13] appears, read: second compound 0.1 µM, first compound 0.0316 µM.
[14] abbreviates: second compound 0.1 µM, first compound 0.1 µM.
The mark [15] stands for this setting: second compound 0.1 µM, first compound 0.316 µM.
Where [16] appears, read: second compound 0.1 µM, first compound 1 µM.
[17] abbreviates: second compound 0.1 µM, first compound 3.16 µM.
Setting [18] is: second compound 0.1 µM, first compound 10 µM.
[19] abbreviates: second compound 0.316 µM, first compound 0.0316 µM.
The mark [20] stands for this setting: second compound 0.316 µM, first compound 0.1 µM.
The mark [21] stands for this setting: second compound 0.316 µM, first compound 0.316 µM.
Setting [22] is: second compound 0.316 µM, first compound 1 µM.
[23] abbreviates: second compound 0.316 µM, first compound 3.16 µM.
The mark [24] stands for this setting: second compound 0.316 µM, first compound 10 µM.
The mark [25] stands for this setting: second compound 1 µM, first compound 0.0316 µM.
Setting [26] is: second compound 1 µM, first compound 0.1 µM.
Where [27] appears, read: second compound 1 µM, first compound 0.316 µM.
[28] abbreviates: second compound 1 µM, first compound 1 µM.
The mark [29] stands for this setting: second compound 1 µM, first compound 3.16 µM.
Where [30] appears, read: second compound 1 µM, first compound 10 µM.
The mark [31] stands for this setting: second compound 3.16 µM, first compound 0.0316 µM.
The mark [32] stands for this setting: second compound 3.16 µM, first compound 0.1 µM.
Setting [33] is: second compound 3.16 µM, first compound 0.316 µM.
[34] abbreviates: second compound 3.16 µM, first compound 1 µM.
The mark [35] stands for this setting: second compound 3.16 µM, first compound 3.16 µM.
The mark [36] stands for this setting: second compound 3.16 µM, first compound 10 µM.
Setting [37] is: second compound 10 µM, first compound 0.0316 µM.
Setting [38] is: second compound 10 µM, first compound 0.1 µM.
The mark [39] stands for this setting: second compound 10 µM, first compound 0.316 µM.
[40] abbreviates: second compound 10 µM, first compound 1 µM.
Setting [41] is: second compound 10 µM, first compound 3.16 µM.
Setting [42] is: second compound 10 µM, first compound 10 µM.
The mark [43] stands for this setting: compound alone, run of 03/18/2024.

Each structure is given as a SMILES string. Values joined by “and” are separate entries in the source; they are usually repeats but may differ in a detail not shown here. Equal values may be shown once.
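Further: spheroids exposed to the agents for seven days.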
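Wherever viability, T/C is given: percent of DMSO vehicle control viability which is 100%.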

In the case of `CC(C)n1c(=O)n(C)c2cnc3cc(F)c(-c4ccc(OCCCN5CCCCC5)nc4)cc3c21` + Cc1cnc(CNC(=O)c2c(=O)c3ccc(N4CCCN(C)CC4)nc3n3c2sc2ccccc23)cn1, the IC50 – broadly, the concentration that inhibits the measured activity by half – was more than 10000 nM under setting [1]; less than 31.6 nM under setting [2]; less than 31.6 nM under setting [3]; less than 31.6 nM under setting [4]; less than 31.6 nM under setting [5]; less than 31.6 nM under setting [6]. In addition, the viability, T/C (usually the ratio of treated to control) runs as follows: under setting [7], 58%; under setting [8], 58.5%; under setting [9], 52.9%; under setting [10], 52.9%; under setting [11], 56.4%; under setting [12], 54%. Besides, the viability, T/C was 44.2% under setting [13]; 45.1% under setting [14]; 42.9% under setting [15]; 42.2% under setting [16]; 49.5% under setting [17]; 47.2% under setting [18]. In addition, the viability, T/C under setting [19] is 46.6%; the viability, T/C under setting [20] is 42.1%; the viability, T/C under setting [21] was 40.9%; the viability, T/C under setting [22] was 41.6%; the viability, T/C under setting [23] was 46.4%; the viability, T/C under setting [24] was 39.4%. Besides, the viability, T/C is, setting by setting: under setting [25], 42.7%; under setting [26], 37.1%; under setting [27], 37.1%; under setting [28], 43.5%; under setting [29], 39.2%; under setting [30], 33.6%. Besides, the viability, T/C is 32.2% under setting [31]; 34.5% under setting [32]; 33.8% under setting [33]; 32.3% under setting [34]; 33.9% under setting [35]; 25.2% under setting [36]. For the same molecule, the viability, T/C is, setting by setting: under setting [37], 31.3%; under setting [38], 32%; under setting [39], 32.2%; under setting [40], 29.1%; under setting [41], 31.4%; under setting [42], 9.52%.
Turning to `COc1ccc([C@@H](O)c2cc(-c3ncnc4cc(N5CCOCC5)ccc34)c(F)cc2Cl)nn1`, the viability, T/C was 94.5% and 95% and 93.8% (compound 0.0316 µM); 98.8% and 89.7% and 92.3% (compound 0.1 µM); 85.5% and 89.3% and 86.5% (compound 0.316 µM); 73.6% and 74.7% and 67.5% (compound 1 µM); 54.6% and 53.4% and 53.7% (compound 3.16 µM); 35.3% and 42.5% and 31.2% (compound 10 µM). For the same molecule, the IC50 (curve of compound) was 4050 nM and 4540 nM and 3480 nM.
Consider `CCc1c2c(nc3ccc(O)cc13)-c1cc3c(c(=O)n1C2)COC(=O)[C@]3(O)CC`, for which the viability, T/C (compound 0.000999 µM) was 72.9% and 83.1% and 65.5%; the viability, T/C (compound 0.00316 µM) is 47.6% and 49.1% and 47%; the viability, T/C (compound 0.00999 µM) was 36.6% and 36.4% and 38.1%; the viability, T/C (compound 0.0316 µM) was 32.8% and 34.7% and 35.9%; the viability, T/C (compound 0.0999 µM) was 30% and 24.7% and 28.8%; the viability, T/C (compound 0.316 µM) is 23.7% (2×) and 24.4%. Moreover, the concentration for half-maximal inhibition (IC50) (curve of compound) was 2.99 nM and 3.5 nM and 2.94 nM.
On to `CC[C@@]1(O)C(=O)OCc2c1cc1n(c2=O)Cc2cc3c(CN(C)C)c(O)ccc3nc2-1`, for which the viability, T/C (compound 0.000999 µM) is 95.5% and 106% and 99.4%; the viability, T/C (compound 0.00316 µM) was 97.2% and 89% and 87.9%; the viability, T/C (compound 0.00999 µM) was 86% and 86.5% and 92%; the viability, T/C (compound 0.0316 µM) was 68.2% and 70.6% and 66.2%; the viability, T/C (compound 0.0999 µM) was 41.4% and 40.2% and 45%; the viability, T/C (compound 0.316 µM) was 37.1% and 38.9% and 35.8%. Further, under “curve of compound”, the half-maximal inhibitory concentration (IC50) is 71.7 nM and 79.8 nM and 73.9 nM.
`CC1COCCN1c1cc(-c2ccnn2C)c2ccnc(-c3ccn[nH]3)c2n1` (stereo not given): the viability, T/C is 81% and 83.4% and 86.5% (compound 0.0316 µM); 59.5% and 53.2% and 55.1% (compound 0.1 µM); 38.6% and 39.2% and 35.8% (compound 0.316 µM); 26.8% and 24.3% and 27.8% (compound 1 µM); 19.3% (2×) and 20.4% (compound 3.16 µM); 18% and 15.8% and 15.7% (compound 10 µM). Further, under “curve of compound”, the half-maximal inhibitory concentration (IC50) is 170 nM and 137 nM and 140 nM.
In the case of `C=CCn1c(=O)c2cnc(Nc3ccc(N4CCN(C)CC4)cc3)nc2n1-c1cccc(C(C)(C)O)n1`, the viability, T/C was 103% (2×) and 101% (compound 0.0316 µM); 85.9% and 89.3% and 91.3% (compound 0.1 µM); 73.9% and 70.5% and 70.1% (compound 0.316 µM); 35.7% and 39.9% and 32.9% (compound 1 µM); 20.4% and 22.2% and 19.9% (compound 3.16 µM); 14.6% and 16.2% and 13.9% (compound 10 µM). The IC50 (curve of compound) is 649 nM and 682 nM and 590 nM.
For `COc1ncnc(C2CC2)c1-c1ncc2cnn(Cc3ccc(-c4nc(C(F)(F)F)cn4C(C)C)cc3)c2n1`, the viability, T/C was 91.5% and 91.7% and 98.3% (compound 0.0316 µM); 95.1% and 89.5% and 100% (compound 0.1 µM); 86.6% and 85.3% and 100% (compound 0.316 µM); 90.3% and 101% and 82.7% (compound 1 µM); 98% and 106% and 95.6% (compound 3.16 µM); 85% and 87.1% and 84.9% (compound 10 µM). Besides, the IC50 (curve of compound) is more than 10000 nM.
Take `Cc1cnc(CNC(=O)c2c(=O)c3ccc(N4CCCN(C)CC4)nc3n3c2sc2ccccc23)cn1`: the viability, T/C is, setting by setting: (compound 0.0316 µM) 66.5% [middle of 12 runs]; (compound 0.1 µM) 51.1% [middle of 12 runs]; (compound 0.316 µM) 46.2% [middle of 11 runs]; (compound 1 µM) 41.8% [middle of 12 runs]; (compound 3.16 µM) 39% [middle of 12 runs]; (compound 10 µM) 33.2% [middle of 12 runs]. In addition, under setting [43], the IC50 is 187 nM [middle of 12 runs].
With `O=c1[nH]cc(F)c(=O)[nH]1` + Cc1cnc(CNC(=O)c2c(=O)c3ccc(N4CCCN(C)CC4)nc3n3c2sc2ccccc23)cn1, the half-inhibitory concentration (IC50) runs as follows: under setting [1], more than 10000 nM; under setting [2], 1120 nM; under setting [3], less than 31.6 nM; under setting [4], less than 31.6 nM; under setting [5], less than 31.6 nM; under setting [6], less than 31.6 nM. Further, the viability, T/C is, setting by setting: under setting [7], 67%; under setting [8], 66.8%; under setting [9], 62.7%; under setting [10], 64.5%; under setting [11], 58.8%; under setting [12], 50.6%. Moreover, the viability, T/C by setting is: under setting [13], 60.6%; under setting [14], 49.7%; under setting [15], 55.8%; under setting [16], 48.5%; under setting [17], 51%; under setting [18], 43.7%. Moreover, the viability, T/C runs as follows: under setting [19], 45.1%; under setting [20], 49.6%; under setting [21], 45.6%; under setting [22], 46.8%; under setting [23], 46.1%; under setting [24], 34.4%. Besides, the viability, T/C was 40.9% under setting [25]; 45.9% under setting [26]; 39.4% under setting [27]; 39.2% under setting [28]; 41.2% under setting [29]; 31.5% under setting [30]. The viability, T/C was 40.7% under setting [31]; 38% under setting [32]; 37% under setting [33]; 32.6% under setting [34]; 36.7% under setting [35]; 34.9% under setting [36]. The viability, T/C was 35.8% under setting [37]; 33.6% under setting [38]; 30.6% under setting [39]; 38.4% under setting [40]; 30.9% under setting [41]; 25% under setting [42].
As for `Cc1[nH]c2ccc(F)cc2c1-c1nc2c3cccnc3c3ncccc3c2[nH]1`, the viability, T/C runs as follows: (compound 0.0316 µM) 104% [middle of 12 runs]; (compound 0.1 µM) 102% [middle of 12 runs]; (compound 0.316 µM) 99.1% [middle of 12 runs]; (compound 1 µM) 92.6% [middle of 12 runs]; (compound 3.16 µM) 73% [middle of 12 runs]; (compound 10 µM) 72.2% [middle of 12 runs]. Moreover, the IC50 was more than 10000 nM under setting [43] and more than 10000 nM (compound alone, run of 03/26/2024).
Consider `CCCS(=O)(=O)Nc1ccc(F)c(C(=O)c2c[nH]c3ncc(-c4ccc(Cl)cc4)cc23)c1F`, for which the viability, T/C runs as follows: (compound 0.0316 µM) 101% and 96% and 115%; (compound 0.1 µM) 91.7% and 116% and 104%; (compound 0.316 µM) 101% and 107% and 113%; (compound 1 µM) 105% and 106% and 99.1%; (compound 3.16 µM) 101% and 87.6% and 96.9%; (compound 10 µM) 42.9% and 43.6% and 32.6%. Besides, the 50% inhibitory concentration (IC50) (curve of compound) is 8670 nM and 8460 nM and 7300 nM.
As for `CC1COCCN1c1cc(C2(S(C)(=N)=O)CC2)nc(-c2ccnc3[nH]ccc23)n1` (stereo not given), the viability, T/C is 94.8% and 102% and 108% (compound 0.0316 µM); 97.4% and 89.5% and 94.1% (compound 0.1 µM); 98.2% and 98.4% and 91.8% (compound 0.316 µM); 79.9% and 72.7% and 79.3% (compound 1 µM); 49.4% and 51.8% and 86.4% (compound 3.16 µM); 31% and 33.7% and 32.8% (compound 10 µM). Besides, under “curve of compound”, the half-inhibitory concentration (IC50) was 3020 nM and 3220 nM and 6630 nM.
